These are literature values, as cited in patent US20070275941A1, “SALT SENSITIVITY AND PREVENTION OF HYPERTENSION WITH DROSPIRENONE” (priority 2006, published 2007).

The data set deals with postmenopausal women with hypertension.

For `C[C@]12CCC(=O)C=C1[C@@H]1C[C@@H]1[C@H]1[C@@H]3[C@@H]4C[C@@H]4[C@@]4(CCC(=O)O4)[C@@]3(C)CC[C@@H]12` [drospirenone], the potassium sparing effect result (clinical studies) was “demonstrated a potassium sparing effect”. Besides, the blood pressure reduction result (postmenopausal women with hypertension, alone or in combination with other agents) is “consistently and substantially reduce blood pressure”.
